{"source": "patent US20250152559A1", "about": "“METHODS FOR TREATING MYC-AMPLIFIED CANCER” (The Governing Council of the University of Toronto, priority 2023, published 2025)", "key": {"[1]": {"tested_on": "de novo pyrimidine biosynthesis in brain tissue", "assay": "LC-MS metabolome profiling of brain tissues of treated mice", "format": "in vivo", "settings": "individual samples, listed as BAY", "protocol": "(§1) In parallel to these experiments, subcutaneous flank xenografts were engrafted into two cohorts of mice, which were treated with the vehicle or R2. […] To investigate the pharmacokinetics of BAY in vivo, its concentration in plasma and brain tissues of healthy mice was directly quantified using an LC-MS approach. BAY was detected in both brains and plasma of mice undergoing treatment, however the plasma concentrations exceeded those of the brain by approximately 10-fold (FIG. 5H-I). To determine whether treatment with BAY affects de novo pyrimidine biosynthesis in vivo, changes in pyrimidine metabolism were measured in the brain in comparison to tumor tissues from the flank (FIG. 5J-K). Although BAY treatment impacted de novo pyrimidine metabolism in vivo in both brain and tumor tissues, with a similar pattern observed in vitro (FIG. 4A), the effect size was stronger in peripheral tumor tissue in comparison to brain tissue. Such findings further reflect the limited capacity for BAY to accumulate within the brain.\nFor metabolome profiling of tissues, ˜5 mg tissue were homogenized in 225 μL of −20° C. cold, methanol using a Bullet Blender Tissue Homogenizer (NextAdvance, Inc.) Bullet for 3 min. The homogenate was vortexed for 20 s and 750 μL of −20° C. cold methyl tertiary-butyl ether (MTBE) was added, and the mixture was vortexed for 10 s and shaken at 4° C. for 5 min. Next, 188 μL room temperature water was added and vortexed for 20 s to induce phase separation. After centrifugation for 5 min at 14,000×g, the bottom polar phase was collected and dried down. Metabolite extracts were reconstituted in LC-MS grade water/acetonitrile (50:50; v:v), vortexed for 1 min, sonicated for 15 min, and centrifuged at 16,000×g and 4° C. for 15 min to remove insoluble debris.\nThe LC-MS metabolomics and lipidomics analyses of the 3 NSC and 3 MB cell lines and tissues were performed on a UPLC-MS system consisting of an Orbitrap IQ-X Tribrid coupled to a Horizon Vanquish UPLC system (Thermo Fisher Scientific). The lipidomics analysis was conducted in positive-ion mode with a spray voltage of 3.5 kV while the metabolomics analysis was conducted in negative-ion mode with a spray voltage of −2.5 kV. The following source conditions were identical in both analyses and were set as follows: Sheath gas flow rate, 50 arbitrary units; Aux. gas flow rate, 10 arbitrary units; Sweep gas flow rate, 1 arbitrary unit; Ion transfer tube temp., 300° C.; Vaporizer temp., 350° C. The following acquisition parameters were used for MS1 analysis in both methods: resolution, 120,000, AGC target, 4e5. The maximum IT was set at […] for the lipidomics analysis and 200 ms for the metabolomics analysis. Data-dependent MS/MS parameters for the lipidomics analyses: resolution, 30,000; AGC target, 7.5e4; maximum IT, Dynamic (54 ms); time between Master Scans, 0.6 s; isolation window, 1.0 m/z; NCE/stepped nce, 20, 30, 40; intensity threshold, 5e4; exclude isotopes, on; dynamic exclusion, 3.0 s. Data-dependent MS/MS parameters for the metabolomics analyses: resolution. 15,000; AGC target, 7.5e4; maximum IT, Dynamic (22 ms); time between Master Scans, 0.6 s; isolation window, 1.0 m/z; NCE/stepped nce, 20, 30, 40, 50; intensity threshold, 5e4; exclude isotopes, on; dynamic exclusion, 5.0 s. To increase the total number of MS/MS spectra in the lipidomics analysis, five runs with iterative MS/MS exclusions were performed using the AcquireX function in Xcalibur (Thermo Fisher Scientific). In the metabolomics analysis, three runs with iterative MS/MS exclusions were performed using the AcquireX function. For the lipidomics analysis, chromatographic separation was achieved using a Waters Acquity UPLC CSH C18 (100 mm×2.1 mm i.d.; 1.7 μm) column injecting 2 μL. […] The column was equilibrated for 2 min at 15% B. The flow rate was set to 250 μL/min. The column temperature was maintained at 65° C. […]"}, "HD-MB03 flank xenograft": {"tested_on": "HD-MB03 flank xenograft", "assay": "Subcutaneous flank xenograft, IVIS, H&E and Ki67 IHC", "format": "in vivo, mice", "protocol": "as §1\nTo examine histological consequences of DHODH inhibition in vivo, the xenografts from the flanks of BAY- and vehicle-treated mice were surgically resected one day after administering the final dose.\nFFPE tissues were sectioned onto slides and then deparaffinized prior to analysis. Samples were stained with H&E for histological examination. In parallel, sections were blocked in 5% BSA (anti-Ki67, anti-4E-BP1 Thr37/46, anti-DHODH) or 5% NGS (anti-EGR1) and stained with primary antibody at 4° C. overnight. […]\nPDOX were generated by engrafting 25,000 tumor cells (both SU_MB002 and HD-MB03 cell lines), suspended in 5 μL PBS, directly into the mouse cerebrum. […] Tumor area was manually measured in H&E-stained sections of FFPE tissues using ImageJ.\nFor imaging via the in vivo imaging system (IVIS), mice were sedated with isoflurane gas and then administered luciferin substrate (150 mg/kg in PBS) via subcutaneous injection. After 10 minutes, bioluminescent signal (photons per second; p/s) was quantified using Living Image software."}, "[2]": {"settings": "brain tissue of BAY-treated mice"}}, "note": "Values joined by “and” are separate entries in the source; they are usually repeats but may differ in a detail not shown here. Identical values can stand only once.", "data": [{"smiles": "CCn1c(CO)nn(-c2cc(O[C@@H](C)C(F)(F)F)c(C(=O)Nc3c(F)cccc3Cl)cc2F)c1=O", "note": "[BAY2402234]", "values": [{"measurement": "Glutamine normalized peak intensity (Area)", "setting": "[1]; [2]", "value": "280983232 and 324326048 and 229454432 and 206007952"}, {"measurement": "N-Carbamoyl aspartic acid normalized peak intensity (Area)", "setting": "[1]; [2]", "value": "1700352 and 1616900 and 1920988 and 2261730"}, {"measurement": "Orotic acid normalized peak intensity (Area)", "setting": "[1]; [2]", "value": "3366687 and 6999989 and 4291824 and 3862066"}, {"measurement": "UDP-GluNAc normalized peak intensity (Area)", "setting": "[1]; [2]", "value": "16715786 and 8363980 and 11501715 and 11534621"}, {"measurement": "UTP normalized peak intensity (Area)", "setting": "[1]; [2]", "value": "22962 and 19870 and 12207 and 19991"}, {"measurement": "Uridine 5′-diphosphate (UDP) normalized peak intensity (Area)", "setting": "[1]; [2]", "value": "133672 and 97588 and 69682 and 73337"}, {"measurement": "Uridine 5′-monophosphate normalized peak intensity (Area)", "setting": "[1]; [2]", "value": "23218120 and 13372546 and 15616277 and 19018060"}, {"measurement": "Uridine normalized peak intensity (Area)", "setting": "[1]; [2]", "value": "41449420 and 113184456 and 51214976 and 33664876"}, {"measurement": "dihydroorotic acid normalized peak intensity (Area)", "setting": "[1]; [2]", "value": "1975829 and 3553594 and 1415838 and 2677330"}, {"measurement": "BAY-2402234 normalized peak intensity (Area)", "setting": "[1]", "value": "1338708 and 4796862 and 1717137 and 2579631"}, {"measurement": "antitumoral response of flank tumors compared to orthotopic xenografts", "setting": "HD-MB03 flank xenograft; HD-MB03 flank, R2", "value": "much stronger antitumoral response"}, {"measurement": "tumor cell density (H&E)", "setting": "HD-MB03 flank xenograft; flank xenografts resected one day after final dose, vs vehicle", "value": "remarkably reduced"}, {"measurement": "Ki67 expression (IHC) in surviving tumor cells", "setting": "HD-MB03 flank xenograft; residual flank xenograft tissues", "value": "reduction in Ki67 expression"}]}]}
